Laboratory results from ChEMBL document CHEMBL1909574, “Acid mediated formation of an N-acyliminium ion from tubulysins: a new methodology for the synthesis of natural tubulysins and their analogs” (Bioorg Med Chem Lett, 2011).

Each molecule was assayed on KB (assay: Growth inhibition of human KB cells by [3H]thymidine incorporation assay). Details: Homo sapiens, KB.
Format: functional, cell-based

SMILES | IC50
CCCCSCN(C(=O)[C@@H](NC(=O)[C@H]1CCCCN1C)[C@@H](C)CC)[C@H](C[C@@H](OC(C)=O)c1nc(C(=O)N[C@@H](Cc2ccc(O)cc2)C[C@H](C)C(=O)O)cs1)C(C)C | 0.7 nM
CCCCCSCN(C(=O)[C@@H](NC(=O)[C@H]1CCCCN1C)[C@@H](C)CC)[C@H](C[C@@H](OC(C)=O)c1nc(C(=O)N[C@@H](Cc2ccc(O)cc2)C[C@H](C)C(=O)O)cs1)C(C)C | 0.8 nM
CC[C@H](C)[C@H](NC(=O)[C@H]1CCCCN1C)C(=O)N(CSCCO)[C@H](C[C@@H](OC(C)=O)c1nc(C(=O)N[C@@H](Cc2ccc(O)cc2)C[C@H](C)C(=O)O)cs1)C(C)C | 26 nM
CC[C@H](C)[C@H](NC(=O)[C@H]1CCCCN1C)C(=O)N(COC)[C@H](C[C@@H](OC(C)=O)c1nc(C(=O)N[C@@H](Cc2ccc(O)cc2)C[C@H](C)C(=O)O)cs1)C(C)C | 9 nM
CCCOCN(C(=O)[C@@H](NC(=O)[C@H]1CCCCN1C)[C@@H](C)CC)[C@H](C[C@@H](OC(C)=O)c1nc(C(=O)N[C@@H](Cc2ccc(O)cc2)C[C@H](C)C(=O)O)cs1)C(C)C | 1.4 nM
CC[C@H](C)[C@H](NC(=O)[C@H]1CCCCN1C)C(=O)N(COCCC(C)C)[C@H](C[C@@H](OC(C)=O)c1nc(C(=O)N[C@@H](Cc2ccc(O)cc2)C[C@H](C)C(=O)O)cs1)C(C)C | 12 nM
CC[C@H](C)[C@H](NC(=O)[C@H]1CCCCN1C)C(=O)N(COCCO)[C@H](C[C@@H](OC(C)=O)c1nc(C(=O)N[C@@H](Cc2ccc(O)cc2)C[C@H](C)C(=O)O)cs1)C(C)C | 18 nM
CCSCN(C(=O)[C@@H](NC(=O)[C@H]1CCCCN1C)[C@@H](C)CC)[C@H](C[C@@H](OC(C)=O)c1nc(C(=O)N[C@@H](Cc2ccc(O)cc2)C[C@H](C)C(=O)O)cs1)C(C)C | 2 nM
CCCSCN(C(=O)[C@@H](NC(=O)[C@H]1CCCCN1C)[C@@H](C)CC)[C@H](C[C@@H](OC(C)=O)c1nc(C(=O)N[C@@H](Cc2ccc(O)cc2)C[C@H](C)C(=O)O)cs1)C(C)C | 1.4 nM
CC[C@H](C)[C@H](NC(=O)[C@H]1CCCCN1C)C(=O)N(CSCCS)[C@H](C[C@@H](OC(C)=O)c1nc(C(=O)N[C@@H](Cc2ccc(O)cc2)C[C@H](C)C(=O)O)cs1)C(C)C | 26 nM
CC[C@H](C)[C@H](NC(=O)[C@H]1CCCCN1C)C(=O)N(CNC(=O)CC(C)C)[C@H](C[C@@H](OC(C)=O)c1nc(C(=O)N[C@@H](Cc2ccc(O)cc2)C[C@H](C)C(=O)O)cs1)C(C)C | 8 nM
C=CCCN(C(=O)[C@@H](NC(=O)[C@H]1CCCCN1C)[C@@H](C)CC)[C@H](C[C@@H](OC(C)=O)c1nc(C(=O)N[C@@H](Cc2ccc(O)cc2)C[C@H](C)C(=O)O)cs1)C(C)C | 1.3 nM
CCCC(=O)OCN(C(=O)[C@@H](NC(=O)[C@H]1CCCCN1C)[C@@H](C)CC)[C@H](C[C@@H](OC(C)=O)c1nc(C(=O)N[C@@H](Cc2ccc(O)cc2)C[C@H](C)C(=O)O)cs1)C(C)C [TUBULYSIN B] | 2 nM

Same assay, conditions: kb

SMILES | IC50
CC[C@@H](C)[C@H](NC(=O)[C@H]1CCCCN1C)C(=O)N(COC(=O)CC(C)C)[C@H](C[C@@H](OC(C)=O)c1nc(C(=O)N[C@@H](Cc2ccc(O)cc2)C[C@H](C)C(=O)O)cs1)C(C)C [TUBULYSIN A] | 1 nM
